According to patent US12102685B2, “Immodulator peptides covalently modified with small molecules” (priority 2020, dated 2024):
Marks after values point to notes of the source that are not given here. Each block holds one compound with its values, some of them ahead of it. Peptide text beside a SMILES is read from it.

Experiments:
[1] = Iron binding of separately labeled peptides (x2E e); details: each peptide labeled separately; IM3 = 100; ferric iron
Description: (§1) Experiments were conducted by the procedure described above. Ferric iron-charged NTA-coated 96-well plates were used as described. 1 ug/well immodulator peptide complexed to Alexa-488-labeled streptavidin in PBS buffer was added (60 min at room temperature). The plate was washed and counted in a standard fluorometer (excitation/emission: 485/525 nm). The results (fluorescence) show improved iron-binding by the three peptides extended C-terminally by the AVD, (dA)VD, and FVS tripeptides. **p<0.01 vs IM3 control IM3: 200±29; IM4: 45±37**; IM5: 130±77; IM3AVD: 434±29**; IM3dAVD: 418±28**; IM3FVS: 371±33** • (c) Competition assay. The same procedure was used as the preceding experiment, except that 375 ng/well labeled IM3 peptide was used, plus 10× of the indicated unlabeled peptide. ‘No competing peptide’ control value was set to 100. *p<0.05 vs “no peptide” control Competing Peptide/Fluorescence • None: 100±38; IM4: 125±26; IM3: 63±27*; IM5: 40±14*; IM3AVD: 10±28* • (d) Competition assay. The same procedure was used as the preceding experiment, except that labeled IM3AVD peptide was used. **p<0.01 vs “no competing peptide” control • None: 100±9; IM4: 144±44; IM3: 35±16**; IM5: 30±19**; IM3AVD: 9±19** • (e) The same procedure was used as the preceding experiment, except that each peptide was labeled with Alexa-488-labeled streptavidin in PBS buffer and used separately. Binding to IM3 was set to =100. *p<0.05, **p<0.01 vs IM3 control. (Labeled Peptide/Fluorescence) IM1: 1.8±0.4**; IM2: 3.0±1.8**; IM3: 100.0±16.8; IM4: 7.2±1.7*; IM5: 86.7±6.4; IM6: 85.9±14.9; IM3AVD:137.7±11.8*; IM3dAVD:147.4±22.9*; IM3FVS: 101.5±10.5.

full-length huNur77 = biological target: T1, full-length huNur77 (Homo sapiens, UniProt P22736); assay: Binding to full-length huNur77 (x3C); details: 333 ng/well labelled peptide
T1 construct: purchased Abcam, Cambridge, MA
Description: 400 ng/well recombinant Nur77 (Abcam, Cambridge, MA) was adsorbed to wells of a 96-well plate for 90 minutes at RT, then blocked with 200 uL 1% BSA in PBS buffer overnight. Plate was washed and 333 ng/well Streptavidin-Alexa 488 conjugate (SA488)-labelled IM3, IM4 or no peptide was added. The plate was incubated for 60 min at room temperature, washed and counted in a standard fluorometer (excitation/emission 485/525 nm). Background (buffer alone) was subtracted.

[2] = Iron-binding competition assay with labeled IM3 (x2E c); details: 375 ng/well labeled IM3 plus 10x unlabeled peptide; no competing peptide = 100
Description: as §1

[3] = biological target: T2, DNA-binding domain (DBD) of RXR-alpha (Homo sapiens, UniProt P19793); assay: Binding to RXRa-DBD with or without ferric iron (x3B)
T2 construct: purchased Abcam, Cambridge, MA
T2 sequence (P19793 111-228): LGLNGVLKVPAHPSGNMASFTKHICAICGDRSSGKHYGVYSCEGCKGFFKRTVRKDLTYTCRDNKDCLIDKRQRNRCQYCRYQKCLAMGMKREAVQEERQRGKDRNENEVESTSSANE
Description: Experiment x3B. Binding of immodulator peptides to DNA-binding domain (DBD) of RXR-alpha, with or without ferric iron. 100 ng/well recombinant RXRa-DBD (Abcam, Cambridge, MA) was adsorbed to wells of a 96-well plate for 60 minutes at RT, then blocked with 200 uL 1% BSA in PBS buffer overnight. Plate was washed and 800 ng/well Streptavidin-Alexa 488 conjugate (SA488)-labelled IM peptide was added, with or without ferric chloride (5 uM) or 5-fold excess RXRa-DBD. The plate was incubated for 2 hours at room temperature, washed and counted in a standard fluorometer (excitation/emission 485/525 nm).

[4] = FITC-PI(4,5)P2 binding at pH5.2 with metals and cold PPI (x9D)
Description: To a streptavidin-coated 96-well plate, 400 ng peptide IM3 or IM5 were bound per well. Each well received 100 uL of sodium acetate buffer pH5.2 containing 500 uM EDTA, Calcium Chloride, Zinc Chloride or Ferric Chloride. Each well additionally contained 50 ng FITC-PI(4,5)P2 plus 2 ug of either cold PI(3,4)P2, PI(4,5)P2, PI(3,5)P2 or buffer. All assays were done in sextuplicate. After incubation at room temperature for 60 mins, wells were washed and counted in a fluorometer set at FITC excitation/emmission wavelengths.

[5] = Competition binding assay to metal-charged NTA-coated plates (x2B b); details: PBS on calcium = 100
Description: NTA-metal-affinity fluorescence assay was performed using 96-well NTA-metal-coated plates readily available from commercial sources such as Qiagen (Germantown, MD). NTA was charged with ferrous or ferric iron, zinc, copper, calcium, vanadium, ruthenium, cobalt, titanium, manganese or other metals. 400 ng of FITC-labeled immodulator peptide (or biotinylated immodulator peptide complexed to Alexa-488-labeled streptavidin) in PBS buffer was added per plate. After incubation at room temperature for 60 minutes, excess peptide was washed off and peptide was detected by measuring fluorescence (excitation 490 nm, emmission 525 nm) in a fluorometer. • (a) Using FITC-labeled IM3 peptide (1 ug/well) in the fluorescent binding assay: • EDTA-treated control: 2,251±1,186 • Ferrous iron: 170,441±11,264 (p<0.001)* • Copper: 13,644±5566 (p<0.05)* • Calcium: 48,822±11,990 (p<0.01)* • *p values are relative to EDTA-treated control • (b) Competition binding assay to ferrous iron, calcium, copper and zinc-charged NTA-coated plates using FITC-labeled IM3 peptide (0.5 uM) and 8× (4 uM) unlabelled competitor peptides IM3N1, IM3N2 (*all comparisons to PBS control are p<0.01); # fluorescent value of binding to […] was set at 100.

T1 sequence (P22736 whole entry): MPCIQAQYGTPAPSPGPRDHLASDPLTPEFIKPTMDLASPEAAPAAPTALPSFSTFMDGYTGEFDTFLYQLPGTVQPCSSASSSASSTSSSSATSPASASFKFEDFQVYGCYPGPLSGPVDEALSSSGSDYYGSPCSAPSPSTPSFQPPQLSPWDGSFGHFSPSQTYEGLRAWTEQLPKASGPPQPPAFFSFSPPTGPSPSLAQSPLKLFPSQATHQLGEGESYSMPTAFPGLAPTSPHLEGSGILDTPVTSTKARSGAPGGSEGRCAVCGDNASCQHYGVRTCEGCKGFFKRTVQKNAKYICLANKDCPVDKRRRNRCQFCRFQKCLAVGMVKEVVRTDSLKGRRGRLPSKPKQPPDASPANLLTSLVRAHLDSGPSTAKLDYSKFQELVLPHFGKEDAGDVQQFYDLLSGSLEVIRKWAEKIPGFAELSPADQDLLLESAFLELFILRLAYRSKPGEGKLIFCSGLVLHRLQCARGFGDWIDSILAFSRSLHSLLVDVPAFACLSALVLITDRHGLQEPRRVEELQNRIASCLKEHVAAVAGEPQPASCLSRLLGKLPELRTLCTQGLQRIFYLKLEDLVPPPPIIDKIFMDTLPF

Compound: CSCC[C@H](NC(=O)[C@H](CO)NC(=O)[C@@H](NC(=O)[C@H](CCC(=O)O)NC(=O)[C@H](CS)NC(=O)[C@H](CCC(N)=O)NC(=O)[C@H](CCCNC(=N)N)NC(=O)[C@H](CO)NC(=O)[C@H](Cc1c[nH]cn1)NC(=O)[C@H](Cc1ccc(O)cc1)NC(=O)[C@H](Cc1ccccc1)NC(=O)CNC(=O)[C@H](CC(N)=O)NC(=O)[C@@H](N)CCCCN)[C@@H](C)O)C(=O)N[C@@H](CC(=O)O)C(=O)NCC(=O)N[C@@H](CCC(=O)O)C(=O)N[C@@H](C)C(=O)NCC(=O)N[C@@H](CC(C)C)C(=O)N[C@@H](CS)C(=O)N[C@@H](Cc1c[nH]c2ccccc12)C(=O)O [IM1] (H-KNGFYHSRQCETSMDGEAGLCW-OH; N-terminus and C-terminus assumed)
fluorescence of labeled peptide [1]: 1.8±0.4

Compound: CSCC[C@H](NC(=O)[C@H](CCCCN)NC(=O)[C@H](CS)NC(=O)[C@H](CCC(N)=O)NC(=O)[C@H](CCCCN)NC(=O)[C@H](CC(C)C)NC(=O)[C@H](CC(N)=O)NC(=O)[C@H](Cc1ccc(O)cc1)NC(=O)[C@H](CC(C)C)NC(=O)CNC(=O)[C@H](Cc1c[nH]cn1)NC(=O)[C@@H](N)CCCCN)C(=O)N[C@@H](CO)C(=O)N[C@@H](CC(C)C)C(=O)N[C@@H](CC(N)=O)C(=O)NCC(=O)N[C@@H](CCC(N)=O)C(=O)N[C@@H](CCCNC(=N)N)C(=O)NCC(=O)N[C@@H](CCC(=O)O)C(=O)N[C@@H](CS)C(=O)N[C@@H](Cc1c[nH]c2ccccc12)C(=O)O [IM2]
fluorescence of labeled peptide [1]: 3.0±1.8

Compound: RGVTEDYLRLETLVQKVVSKGFYKKKQCRPSKGRKRGFCW [IM3N1]
FITC-IM3 fluorescence with competitor ([5]; Calcium, 0.5 uM FITC-IM3, 8x (4 uM) unlabelled competitor): 14.6 ± 1.4*
FITC-IM3 fluorescence with competitor ([5]; Copper, 8x (4 uM) unlabelled competitor): 9.2 ± 1.5*
FITC-IM3 fluorescence with competitor ([5]; Ferrous iron, 8x (4 uM) unlabelled competitor): 20.4 ± 1.0*
FITC-IM3 fluorescence with competitor ([5]; Zinc, 8x (4 uM) unlabelled competitor): 15.7 ± 1.3*

The next lines start with the values.

fluorescence (full-length huNur77; Nur77 400 ng/well): 70 ± 48
fluorescence (full-length huNur77; no Nur77 adsorbed): 112 ± 24
fluorescence of labeled peptide [1]: 7.2±1.7
fluorescence of labeled IM3 with competing peptide [2]: 125±26
Compound: CC(C)C[C@H](NC(=O)[C@H](C)NC(=O)[C@@H]1CCCN1C(=O)[C@H](Cc1c[nH]cn1)NC(=O)[C@H](CS)NC(=O)[C@H](CCC(N)=O)NC(=O)[C@H](CCCCN)NC(=O)[C@@H]1CCCN1C(=O)[C@H](Cc1c[nH]cn1)NC(=O)[C@H](Cc1ccccc1)NC(=O)[C@H](CC(N)=O)NC(=O)CNC(=O)[C@H](CC(N)=O)NC(=O)[C@@H](N)CCCNC(=N)N)C(=O)N[C@@H](CC(=O)O)C(=O)NCC(=O)N[C@@H](CCC(N)=O)C(=O)N[C@@H](CCCNC(=N)N)C(=O)NCC(=O)N[C@@H](CCCCN)C(=O)N[C@@H](CS)C(=O)N[C@@H](Cc1c[nH]c2ccccc12)C(=O)O [IM4] (H-RNGNFHPKQCHPALDGQRGKCW-OH; N-terminus and C-terminus assumed)

fluorescence of labeled peptide [1]: 86.7±6.4
fluorescence of labeled IM3 with competing peptide [2]: 40±14
fluorescence ([3]; 100 ng/well RXRa-DBD, no FeCl3, no excess RXRa-DBD): 228.0 ± 44.9
fluorescence ([3]; FeCl3 5 uM, 5X excess RXRa-DBD): 303.0 ± 68.3
fluorescence ([3]; FeCl3 5 uM, no excess RXRa-DBD): 552.7 ± 86.8^
fluorescence, FITC-PI(4,5)P2 bound ([4]; Buffer, Calcium): 234 ± 34
fluorescence, FITC-PI(4,5)P2 bound ([4]; Buffer, EDTA): 88 ± 23
fluorescence, FITC-PI(4,5)P2 bound ([4]; Buffer, Ferric Iron): 1,111 ± 167
fluorescence, FITC-PI(4,5)P2 bound ([4]; Buffer, Zinc): 236 ± 55
fluorescence, FITC-PI(4,5)P2 bound ([4]; Cold PI(3,4)P2, Calcium): 205 ± 50
fluorescence, FITC-PI(4,5)P2 bound ([4]; Cold PI(3,4)P2, EDTA): 150 ± 81
fluorescence, FITC-PI(4,5)P2 bound ([4]; Cold PI(3,4)P2, Ferric Iron): 2,150 ± 420
fluorescence, FITC-PI(4,5)P2 bound ([4]; Cold PI(3,4)P2, Zinc): 151 ± 51
fluorescence, FITC-PI(4,5)P2 bound ([4]; Cold PI(3,5)P2, Calcium): 489 ± 146
fluorescence, FITC-PI(4,5)P2 bound ([4]; Cold PI(3,5)P2, EDTA): 205 ± 71
fluorescence, FITC-PI(4,5)P2 bound ([4]; Cold PI(3,5)P2, Ferric Iron): 2,026 ± 176
fluorescence, FITC-PI(4,5)P2 bound ([4]; Cold PI(3,5)P2, Zinc): 353 ± 29
fluorescence, FITC-PI(4,5)P2 bound ([4]; Cold PI(4,5)P2, Calcium): 163 ± 80
fluorescence, FITC-PI(4,5)P2 bound ([4]; Cold PI(4,5)P2, EDTA): 81 ± 95
fluorescence, FITC-PI(4,5)P2 bound ([4]; Cold PI(4,5)P2, Ferric Iron): 1,447 ± 304
fluorescence, FITC-PI(4,5)P2 bound ([4]; Cold PI(4,5)P2, Zinc): 104 ± 21
Compound: CC[C@H](C)[C@H](NC(=O)CNC(=O)[C@H](CCCNC(=N)N)NC(=O)[C@H](CCCCN)NC(=O)[C@H](CCCNC(=N)N)NC(=O)CNC(=O)[C@H](CCCNC(=N)N)NC(=O)[C@H](CO)NC(=O)[C@@H]1CCCN1C(=O)[C@H](CCCCN)NC(=O)[C@H](CS)NC(=O)[C@H](CCC(N)=O)NC(=O)[C@H](CCCCN)NC(=O)[C@H](CCCNC(=N)N)NC(=O)[C@H](CCCCN)NC(=O)[C@H](Cc1ccc(O)cc1)NC(=O)[C@H](Cc1ccccc1)NC(=O)CNC(=O)[C@H](CCCCN)NC(=O)[C@@H](N)CCCNC(=N)N)C(=O)N[C@@H](CS)C(=O)N[C@@H](Cc1c[nH]c2ccccc12)C(=O)O [IM5] (H-RKGFYKRKQCKPSRGRKRGICW-OH; N-terminus and C-terminus assumed)
